How the values were obtained:
HHV-8 = test: quantitative PCR-based (Taqman) assay for agents active against HHV-8 in TPA-induced BCBL-1 cells; format: cell-based, human herpesvirus 8
Protocol: 3. […] Samples were incubated at 37° C. for 30 minutes.
4. […] Total reaction volumes were 50 μL.

[1] = XTT-tetrazolium assay of compound toxicity to host cells; format: cell-based; conditions: human; Table IV, six concentrations; read-out: TC50
Protocol: Culturing these cells in the presence of phobol ester induces a lytic infection cycle, resulting in the release of viral particles into the medium. Compound efficacy in this proposed assay was determined using the Taqman PCR technology, and compound toxicity to host cells was assessed using an XTT-tetrazolium assay.
1. BCBL-1 cells were counted by the trypan blue dye exclusion method, and the cell count/mL was determined. Cells were pelleted by centrifugation and washed once with PBS to minimize the basal level of virus released from untreated cells which spontaneously enter the lytic cycle and release virus.
2. Cells were resuspended in fresh media and adjusted to a cell density of 1×10^5 per mL. Cells were then plated in the interior wells of 96-well round-bottom microtiter plates in a volume of 50 μL per well.
3. The phorbol ester TPA was added to appropriate wells in a volume of 50 μL per well to yield a final concentration of 20 ng/mL. Medium was added in place of TPA in three wells to serve as a negative control.
4. Test compounds were diluted in DMSO to a stock concentration which is 400× the desired high concentration. These compounds were further diluted in complete medium in 1.2 mL titertubes to yield a solution which is 2× the desired high concentration. […]
2. […] Plates were read on UVMax microtiter plate reader at a wavelength of 450/650 nm.

Cytomegalovirus (CMV) = conditions: clinical trials, AIDS patients; cited from earlier work
[2] = in vivo; cited from earlier work
[3] = molecular target: HIV reverse transcriptase (Human immunodeficiency virus type 1 group M subtype B, UniProt P03366); conditions: HIV RT; cited from earlier work

| Structure (SMILES) | antiviral activity against HHV-8 (in words) (HHV-8; bioassay with HHV-8) | CC50 at 6 days [1] | efficacy in treatment of CMV infection (Cytomegalovirus (CMV)) | nephrotoxicity (Cytomegalovirus (CMV)) | oral bioavailability [2] | IC50 [3] | TI (therapeutic index) (HHV-8) | IC50 (HHV-8; Human gammaherpesvirus 8, BCBL1, Table IV, six concentrations, Foscarnet value is average of six separate tests) | Activity (HHV-8; Table IV, by TI) |
| --- | --- | --- | --- | --- | --- | --- | --- | --- | --- |
| CCCCCCCCCCCCCCOC(=O)P(=O)([O-])OC.[Na+] [ID# 8] | moderate to relatively high antiviral activity | – | – | – | – | – | – | – | – |
| O=C(O)P(=O)(O)O [Foscarnet, Trisodium phosphonoformate] | – | > 300 µM | efficacious | reversible nephrotoxicity | low | ~1 µM | >38.9 | 7.7 µM | active |

Reference: patent US6444837B1, “Synthesis and antiviral activity of a series of pyrophosphate analogs” (University of Southern California, priority 1998, dated 2002)
